Measurements taken from patent publication US4307072A, “N-Triiodobenzoylaminoacyl polyhydroxic amines” (Mallinckrodt, Inc., priority 1977, dated 1981).
In brackets after ≈: the same amount, converted by molar mass.

Key:
Swiss albino mice [1] = experiment: Intravenous toxicity study in mice (seven-day LD50); format: in vivo; details: lateral tail vein, 1 ml./min., concentration I W/V: Example 1 26.3, Example 2 11.25, Example 3 28.2, Example 5 28.0
Protocol: (§1) Intravenous, intracerebral and intracisternal acute toxicities of the compounds of Examples 1-5 were determined according to the following procedures.
Intravenous toxicity study in mice
Swiss albino mice with weights ranging from 18 to 25 grams were used for the performance of the test. Three to four groups of mice with sexes equally represented in each group received single measured doses (mg. of contrast media/kg of body weight) injected into a lateral tail vein at a rate of 1 ml./min.
Mortalities were recorded during the first four hours then daily for seven days. After seven days, surviving animals were sacrificed and necropsies performed.
Calculation of the seven-day LD50 value was carried out according to the method of Litchfield and Wilcoxon (J. Pharmacol. Exp. Ther. 96, 99-113, 1949)

Swiss albino mice [2] = experiment: Intracerebral toxicity study in mice (48 hours LD50); format: in vivo; details: 0.05 ml. (0.1 ml. maximum), concentration I W/V: Example 1 26.3, Example 2 11.25, Example 3 28.2, Example 5 28.2
Protocol: as §1
Intracerebral toxicity study in mice
Swiss albino mice of either sex, weighing 18 to 23 grams were used for this test according to the method of Haley (Brit. J. Pharmcol. 12, 12-15 1957). At each dose level, the contrast medium was injected as follows. The mouse was grasped firmly by the loose skin behind the head. After the skin was pulled taut, a 3/8 inch 27 gauge needle attached to a 0.25 ml. syringe was inserted perpendicularly through the skull into the brain at a point 2 mm. from either side of the mid line on a line drawn through the anterior base on the ears. A dose of 0.05 ml. (0.1 ml. maximum) of various concentrations of the contrast medium was injected.
Mortalities were recorded during the first four hours, then daily for two days. Surviving animals were sacrificed 48 hours after injection and the LD50 value was calculated according to the method of Litchfield and Wilcoxon (J. Pharmacol. Exp. Ther. 96, 99-113, 1949).

physchem = details: water
Sprague Dawley rats = experiment: Intracisternal toxicity study in rats (LD50); format: in vivo; details: cisterna magna, single dose, seven days, concentration I W/V: Example 1 35.0, Example 2 11.25, Example 3 14.1, Example 5 35.0
Protocol: as §1
Intracisternal toxicity study in rats
The method of intracisternal administration of contrast media in rats was based on the procedure outlined by Melartin, et al. (Investigative Radiology, Jan. - Feb. 13, 12, 1970). Sprague Dawley rats were anesthetized with ether and positioned on a slanted stand. Following clipping of their hair on the nuchal and cervical area, a small midline incision was made in the skin in the occipital area to facilitate penetration of a 27 gauge needle into the cisterna magna. […] Single measured doses of the contrast medium were then injected.
Following injection, the animals were individually housed and observed for pharmacological and toxicological manifestations. Mortalities were recorded during the first four hours, then daily for seven days. Calculation of the LD50 value was carried out according to the method of Litchfield and Wilcoxon (J. Pharmacol. Exp. Ther. 96, 99-113, 1949)

Row | SMILES | Intravenous LD50 (Swiss albino mice [1]) | Intracerebral LD50 (Swiss albino mice [2]) | solubility (physchem) | Intracisternal LD50 (Sprague Dawley rats) | solubility (Solubility in water; water) | solubility (Solubility in water)
1 | CC(=O)Nc1c(I)c(C(=O)NCC(=O)N(C)CC(O)CO)c(I)c(C(=O)NCC(=O)N(C)CC(O)CO)c1I (centres unmarked) [Example 3, (5-Acetamido-2,4,6-triiodoisophthaloyl)-N,N'-bis-2,3-dihydroxypropyl-N,N'-dimethyl-bis glycinamide] | > 15,000 mg. I/kg. | ~1425 mg. I/kg. | ~1000 mg/mL (≈ 1120 mM) | 100 mg. I/kg. |  | 
2 | CC(=O)Nc1c(I)c(C(=O)NCC(=O)N(C)C[C@H](O)[C@@H](O)[C@H](O)[C@H](O)CO)c(I)c(N(C)C(C)=O)c1I [Example 5, N-(3-Acetamido-2,4,6-triiodo-5-N-methylacetamidobenzoylglycyl)-1-(methylamino)-1-deoxy-D-glucitol] | ~8,000 mg. I/kg. | ~1100 mg. I/kg. |  | 400 mg. I/kg. | ~1000 mg/mL (≈ 1160 mM) | 
3 | CC(=O)Nc1c(I)c(C(=O)NCC(=O)N[C@@H](CO)[C@@H](O)[C@H](O)[C@H](O)CO)c(I)c(N(C)C(C)=O)c1I [Example 1, 2-(3-Acetamido-2,4,6-triiodo-5-N-methylacetamidobenzoylglycylamino)-2-deoxy-D-glucitol] | ~10,000 mg. I/kg. | ~1550 mg. I/kg. |  | ~525 mg. I/kg. | ~1000 mg/mL (≈ 1180 mM) | 1000 mg/mL (≈ 1180 mM)
4 | CNC(=O)c1c(I)c(NC(C)=O)c(I)c(C(=O)NCC(=O)N[C@@H](CO)[C@@H](O)[C@H](O)[C@H](O)CO)c1I [Example 2, 2-Deoxy-2-(3-Acetamido-2,4,6-triiodo-5-N-methylcarbamyl-benzoylglycylamino)-D-glucitol] | > 7,500 mg. I/kg. | > 543 mg. I/kg. |  | < 200 mg. I/kg. | ~50 mg/mL (≈ 59.9 mM) | 
